Data taken from patent US9545438B2, “Determination of antigenicity of an inactivated virus” (Universiteit Gent, priority 2008, dated 2017).

Legend:
[1] = test system: MARC-145 cells; assay: Virus titration of treated PRRSV on MARC-145 cells (inactivation curve); format: cell-based; conditions: four hours at 37° C.
Procedure: Formaldehyde was then removed by ultracentrifugation. Inactivation with glutaraldehyde was performed with purified virus (10^7 TCID50/ml) that was incubated for four hours at 37° C. with different concentrations (0-0.005-0.05-0.5-5 or 50 ng/ml) glutaraldehyde (Sigma) (Darnell et al., 2004). Glutaraldehyde was removed by ultracentrifugation afterwards. For inactivation with 2,2-dithiodipyridine (AT-2), purified virus (10^7 TCID50/ml) was incubated for four hours at 37° C. with different concentrations (0-10-30-100-300 or 1000 μM) AT-2 (Aldrich) (Rossio et al., 1998; Chertova et al., 2003). Afterwards, AT-2 was removed by ultracentrifugation. For inactivation by changing the pH, the pH was adjusted with HCl of 32% to pH2 and with NaOH to pH12. Purified virus (10^7 TCID50/ml) was incubated for several hours at a pH2 or at a pH12. After incubation, the pH was neutralized (Darnell et al., 2004). For inactivation of PRRSV at a certain temperature, purified virus (10^7 TCID50/ml) was incubated for several (0-6-12-24-48 or 72) hours at 37° C. […]
Virus titration was performed in a 96-well plate with a confluent monolayer of MARC-145 cells. […] After three to five days incubation at 37° C., the occurrence of cytopathic effect (CPE) was investigated and the 50% tissue culture infective dose (TCID50) could be calculated. […]

[2] = test system: CHO^Sn-CD163 cell line ID9; assay: Binding, internalization, fusion and infection in CHO^Sn-CD163 cell line ID9; format: cell-based, Chinese Hamster
Procedure: (§1) Macrophages or CHO cells (including CHO^Sn and CHO^Sn-CD163 cells, i.e., the CHO cells expressing sialoadhesin and CD163 deposited on May 14, 2008 at the Belgian Coordinated Collections of Microorganisms as CHO^Sn/CD163 IC5; CHO^Sn/CD163 ID9 and CHO^Sn/CD163 IF3 with the respective accession numbers (LMBP 6677CB, LMBP 6678CB, and […]) were incubated for one hour at 37° C. with the treated PRRSV and fixed with methanol. Then the capsid protein was stained with a primary antibody P3/27 and a secondary antibody goat-anti-mouse FITC. Confocal analysis was performed to determine the amount of internalized PRRSV.
(§2) Macrophages, CHO^Sn or CHO^Sn-CD163 cells were seeded at 200,000 cells/ml in a 24-well plate with insert. After two days, the cells were inoculated with wild-type Lelystad Virus (LV) grown on MARC-145 cells and inactivated LV grown on MARC-145 cells. The cells were fixed with methanol after one hour at 4° C. (binding; 0 hpi), one hour at 37° C. (internalization), five hours at 37° C. […] (infection) and 24 hours at 37° C. (infection). The virus was stained with a primary antibody P3/27 (anti-capsid) and a secondary antibody goat-anti-mouse FITC. The virus particles were counted with a confocal microscope.

[3] = test system: CHO^Sn-CD163 cell line IF3; assay: Binding, internalization, fusion and infection in CHO^Sn-CD163 cell line IF3; format: cell-based, Chinese Hamster
Procedure: as §1, §2

[4] = test system: macrophages; assay: Attachment, internalization, fusion and replication of inactivated PRRSV in macrophages by immunostaining and confocal microscopy; format: cell-based, porcine; conditions: 1 hpi
Description: The European strain Lelystad virus (LV) of PRRSV (Wensvoort et al., 1991) grown on MARC-145 cells (5th passage) was used for inactivation. MARC-145 cells cultivated in minimum Eagle's medium (MEM) with 5% FCS, 1% glutamine, 1% penicillin-streptomycin and 1% kanamycin were used for LV production and titration of inactivated virus. Attachment and internalization of the inactivated virus was investigated in macrophages that where cultivated in medium containing RPMI 1640, 10% FCS, 1% penicillin-streptomycin, 1% kanamycin, 1% gentamycin, 1% tylosin, 1% glutamine, 1% nonessential amino acids and 1% sodium pyruvate for 24 hours before inoculation. When CHO cells were used, the cells were cultivated in F12 with 10% FCS, 1% penicillin-streptomycin, 1% kanamycin, 1% glutamine, and 1% sodium pyruvate and were transfected with sialoadhesin. As the macrophages, the CHO cells were also cultivated 24 hours before inoculation. […]
Macrophages, CHO^Sn or CHO^Sn-CD163 cells were seeded at 200,000 cells/ml in a 24-well plate with insert. […] The virus particles were counted with a confocal microscope.

[5] = test system: CHO^Sn-CD163 cell line IC5; assay: Binding, internalization, fusion and infection in CHO^Sn-CD163 cell line IC5; format: cell-based, Chinese Hamster
Procedure: as §1, §2

## C=O [formaldehyde]
[1]; lowest concentration of 10 pg/ml formaldehyde
  infectious virus detected by titration: no infectious virus detected
[2]
  Binding (particles counted at 0 hpi): 2 particles
  Fusion (particles counted at 5 hpi): 0 particles
  Infection 12 hpi (%): 0%
  Infection 24 hpi (%): 0%
  Internalization (particles counted at 1 hpi): 0 particles
[3]
  Binding (particles counted at 0 hpi): 1 particles
  Fusion (particles counted at 5 hpi): 1 particles
  Infection 12 hpi (%): 0%
  Infection 24 hpi (%): 0%
  Internalization (particles counted at 1 hpi): 0 particles
[4]; 0.1 ng/ml formaldehyde
  internalization in macrophages: no longer able to internalize
[5]
  Binding (particles counted at 0 hpi): 0 particles
  Fusion (particles counted at 5 hpi): 0 particles
  Infection 12 hpi (%): 0%
  Infection 24 hpi (%): 0%
  Internalization (particles counted at 1 hpi): 0 particles

## O=CCCCC=O [glutaraldehyde]
[1]; 0.5 ng/ml glutaraldehyde or more
  infectious virus detected by titration: no infectious virus could be detected
[2]
  Binding (particles counted at 0 hpi): 0 particles
  Fusion (particles counted at 5 hpi): 0 particles
  Infection 12 hpi (%): 0%
  Infection 24 hpi (%): 0%
  Internalization (particles counted at 1 hpi): 0 particles
[3]
  Binding (particles counted at 0 hpi): 2 particles
  Fusion (particles counted at 5 hpi): 1 particles
  Infection 12 hpi (%): 0%
  Infection 24 hpi (%): 0%
  Internalization (particles counted at 1 hpi): 0 particles
[4]; 50 ng/ml glutaraldehyde
  internalization in macrophages: no longer able to internalize
[5]
  Binding (particles counted at 0 hpi): 1 particles
  Fusion (particles counted at 5 hpi): 0 particles
  Infection 12 hpi (%): 0%
  Infection 24 hpi (%): 0%
  Internalization (particles counted at 1 hpi): 0 particles
